The values that follow come from US20230039099A1, “AKT INHIBITORS FOR ENHANCING CHIMERIC T CELL PERSISTENCE” (H. Lee Moffitt Cancer Center and Research Institute, Inc., priority 2019, published 2023).

The test system of one series is CAR T cells. As to the kind of experiment: CAR T cell memory phenotype by flow cytometry (LSRII), TCN added during CAR T cell production. The series is classed as cell-based, human. The following applies: healthy donor PBMC T cells; TCN added on day 2 before first spin transduction; flow cytometry on day 7. How it is done: FIGS. 1A to 1G show TCN increases central memory CAR T cell population. T cells were isolated from healthy donor PBMCs using negative selection. TCN was added on day 2 before the first spin transduction. On day 7 cells were stained for flow cytometry and run on an LSRII.
T cells were isolated from healthy donor PBMCs using negative selection. TCN was added on day 2 before the first spin transduction. On day 7 cells were stained for flow cytometry and run on an LSRII.
For the anti-human CD19 constructs the SFG backbone was modified to include the FMC63 ScFv with a CD8a trans-membrane and hinge domain followed by either CD28 or 4-1BB, and CD3. All SFG constructs were calcium phosphate transfected into H29 cells. Retroviral supernatants of transfected H29 were harvested and used to transduce Phoenix E or RD114 cells. Retroviral supernatant of producer cells was harvested, 0.45 μm filtered, and used to transduce T cells as described. Viability was measured by trypan blue staining and enumerated on an automated cell counter (Bio-Rad). Transduction efficiency was estimated by flow cytometry as a percentage of protein L+ live cells. For downstream experiments CAR T cell doses were normalized based on CAR gene transfer but not sorted to exclude CAR-negative T cells. As a result, total T cell dose was varied.
(In flow cytometry, cells or beads pass a laser one at a time.)

For another series, the system named is p-Akt. The series is described as follows: p-Akt western blot in m1928z CAR T cells stimulated with 3T3-mCD19 targets. In kind it is cell-based, mouse (C57BL6). The settings on record: C57BL6 splenocyte T cells, TCN added on day 2, day 5 stimulation with 3T3-mCD19 targets for 24 hrs. Here is the method: T cells were isolated from C57BL6 splenocyes using negative selection. TCN was added on day 2 before the first spin transduction. On day 5 CAR T cells were stimulated with 3T3-mCD19 targets for 24 hrs. After stimulation cells were lysed and run by western blot. […] T cells were isolated from C57BL6 splenocyes using negative selection. TCN was added on day 2 before the first spin transduction. On day 5 CAR T cells were stimulated with 3T3-mCD19 targets for 24 hrs. After stimulation cells were lysed and run by western blot.
In general terms: A western blot detects proteins with antibodies after separation by electrophoresis.

The subject of series [1] is h19BBz CAR T cells. As to the kind of experiment: Real time cell killing of 3T3-hCD19 target cells by h19BBz CAR T cells (xCelligence RTCA). In kind it is cell-based, human. The settings on record: healthy donor T cells, TCN added on day 2. Here is the method: (§1) T cells were isolated from healthy donor PBMCs using negative selection. TCN was added on day 2 before the first spin transduction. To measure real time cell killing CAR T cells were stimulated with 3T3-hCD19 target cells using an xCelligence RTCA machine. To measure cytokine secretion CAR T cells were stimulated with target cells for 24 hrs. Supernatant was then collected and run using Ella to measure cytokines. […] T cells were isolated from healthy donor PBMCs using negative selection. TCN was added on day 2 before the first spin transduction. To measure real time cell killing CAR T cells were stimulated with 3T3-hCD19 target cells using an xCelligence RTCA machine. To measure cytokine secretion CAR T cells were stimulated with target cells for 24 hrs. Supernatant was then collected and run using Ella to measure cytokines.

The subject of series [2] is h19BBz CAR T cells. The series is described as follows: Cytokine secretion of h19BBz CAR T cells stimulated with target cells for 24 hrs (Ella). In kind it is cell-based, human. The settings on record: healthy donor T cells; TCN added on day 2; target cell stimulation 24 hrs; supernatant run on Ella. How it is done:
as §1

Another series has as its system T cells. The series is described as follows: Toxicity of TCN for T cells. In kind it is cell-based. The settings on record: human healthy donor T cells, in vitro. How it is done:
Previous studies have shown drugs given during CART cell production can influence their function. To determine the effect of TCN human healthy donor T cells are treated with TCN prior to CAR transduction. 10 μM of TCN is used because it is the highest non-toxic dose for T cells. After transduction and proliferation in culture in vitro assays are preformed to determine CAR T cell function. These include cytotoxicity, cytokine secretion, RNA-seq, polyfunctional strength index, and CAR T cell phenotype. We next evaluate the function of CAR T cells given TCN during production in vivo. A total of 60 NSG mice are given the human B cell tumor cell line NALM6 containing luciferase on day −7. On day 0, 10 mice per group will be given untransduced, h1928z, or h19BBz CAR T cells produced with or without TCN. Bioluminescence imaging is used to determine tumor burden and measure overall survival.

Consider `CN1N=C(N)c2cn([C@@H]3O[C@H](COP(=O)(O)O)[C@@H](O)[C@H]3O)c3ncnc1c23` [TCN, Triciribine], for which, in the series on CAR T cells, the “central memory CAR T cell population” value was “increases” and the “effector memory CAR T cell population” value was “increases”. Also, in the series with p-Akt, the “p-Akt in m1928z CAR T cells” value was “inhibits”. Further, the “h19BBz CAR killing” value in the series with h19BBz CAR T cells [1] was “reduces”. The “h19BBz CAR cytokine secretion” value in the series on h19BBz CAR T cells [2] was “reduces”. Besides, the “highest non-toxic dose for T cells” value in the series on T cells is 10 µM.
